Bridge positions count the residues as written; N and C are the ends. Square brackets hold non-standard residues; d marks the D form. * marks the point of attachment. 2Nal = N[C@@H](Cc1ccc2ccccc2c1)C(=O)O; Benzoyl(4-F) = O=C(c1ccc(F)cc1)*; Cit = NC(=O)NCCC[C@H](N)C(=O)O
Test system: neutrophil migration to peripheral blood
Assay: In vivo neutrophil migration to peripheral blood after injection
Details: mice, single subcutaneous dose of 5 mg/kg BL-8040 in 200 μl PBS, bled 2 hours after injection, flow cytometry of mature neutrophils, increase relative to control mice
Procedure: In some of any of the respective embodiments, promotion of in vivo neutrophil migration to peripheral blood is determined by subcutaneously injecting mice with 5 mg/kg of BL-8040 (SEQ ID NO: 1), reconstituted in 200 μl of PBS, then bleeding the mice 2 hours after injection (e.g., by cardiac puncture into tubes with heparin) and quantifying the number of mature neutrophils in the peripheral blood (e.g., by flow cytometry) relative to control (untreated) mice.
BL-8040 (SEQ ID NO: 1) is an antagonist of the CXCR4 chemokine receptor. The induction of the cellular activity mediated by CXCR4 is responsible for the attachment of white blood cells to the bone marrow stromal cells. Inhibition of the CXCR4 activity (e.g., by BL-8040 (SEQ ID NO: 1)) is therefore expected to induce the detachment of the white blood cells (which include but are not limited to neutrophils) from the bone marrow stroma, and the subsequent migration of the cells to the peripheral blood. […]
Mice were subcutaneously injected with a single dose of 5 mg/kg of BL-8040 (SEQ ID NO: 1), reconstituted in 200 μl of PBS. […] Flow cytometry was used to evaluate the number of mature neutrophils in the peripheral blood, and the increase relative to control mice was calculated.

Substance: Reference Example 1: BL-8040 prepared on Rink amide resin with HOBt/TBTU coupling and iodine cyclization; lacks the RRT 0.87 and 0.72 compounds ({Benzoyl(4-F)}-RR[2Nal]CY[Cit]K[dK]PYR[Cit]CR-NH2; disulfide 4-13 (inferred))
- Fold increase in neutrophil number: 5.6

Source: US12268725B2, “Composition of BL-8040” (BioLineRx Ltd., priority 2020, dated 2025)
